Laboratory results taken from patent US5104897A, “Medical uses of halogen substituted diphenylsulfides” (Burroughs Wellcome Co., priority 1989, dated 1992).

How the values were obtained:
Assay type in all cases: biochemical
[1] = tested on: Norepinephrine uptake (crude synaptosomal preparation); assay: Uptake of 3H-norepinephrine in crude synaptosomal preparations of rat hypothalamus and striatum; details: [3H]1-norepinephrine, rat hypothalamus/striatum synaptosomes, 5 min preincubation, 3 min incubation, 37° C. minus 0° C. uptake; read-out: IC50 (Molar) for Inhibition of Biogenic Amine Uptake, Norepinephrine
Procedure: (§1) Activity Studies Uptake of ^3 H-Biogenic Amines in Crude Synaptosomal Preparations of Rat Hypothalamus and Striatum.
(§2) A 0.5 mL aliquot of a crude synaptosomal preparation prepared according to the technique of Ferris et al., J. Pharm. Exp. Ther., 181, 407 (1972) and Patrick et al., J. Pharm. Exp. Ther., 241, 152 (1987) was incubated in a standard incubation medium containing 10 μM iproniazid, 1 μM ascorbate and […] of either [^3 H]dopamine, [^3 H]1-norepinephrine or [^3 H]serotonin. Final volumes were 3 mL.
(§3) All incubations were conducted for 3 minutes under an atmosphere of 95% O2 -5% CO2. The uptake at 0° C. and 37° C. was determined in each experiment and the difference between the two determinations represented the accumulation of [^3 H]amine by the temperature-dependent uptake process. Test compounds were dissolved in the standard incubation medium and preincubated with the crude synaptosomal preparation for 5 mintes, before the addition of the labeled substrate.
(§4) Reactions were stopped by the addition of 2 mL of ice-cold 0.32M sucrose containing 25 mM Tris buffer, pH 7.4, and rapid cooling in an ice-bath. Samples were centrifuged at 49,600×g for 10 minutes. The resulting pellet was washed with 5 mL of 0.9% saline and again centrifuged. […] A 1 mL aliquot of the supernatant was taken for determination of radioactivity.

[2] = tested on: Dopamine uptake (crude synaptosomal preparation); assay: Uptake of 3H-dopamine in crude synaptosomal preparations of rat hypothalamus and striatum; details: at 10^-5 (Molar by title), rat synaptosomes, mean of triplicate assay with S.E.M. < ±5%
Procedure: as §1, §2, §3, §4

[3] = tested on: Serotonin uptake (crude synaptosomal preparation); assay: Uptake of 3H-serotonin in crude synaptosomal preparations of rat hypothalamus and striatum; details: rat hypothalamus/striatum synaptosomes, 5 min preincubation, 3 min incubation, 37° C. minus 0° C. uptake, read-out: IC50 (Molar) for Inhibition of Biogenic Amine Uptake, Serotonin
Procedure: as §1, §2, §3, §4

CN(C)Cc1ccccc1Sc1ccc(Cl)cc1CO.Cl [Example 2, 5-chloro-2-((2-((dimethylamino)methyl)phenyl)thio)benzyl alcohol hydrochloride]
IC50 [1]: 55 nM
Percent inhibition of Dopamine uptake [2]: 15%
IC50 [3]: 2.1 nM

5-Chloro-2-((2-((methylamino)methyl)phenyl)thio)benzyl Alcohol [Example 5]
IC50 [1]: 110 nM
Percent inhibition of Dopamine uptake [2]: 38%
IC50 [3]: 21 nM
